Data set [1] has as its system Human gingival epithelial (HGE) cell. In words: Barrier protection analysis by real time cell analyzer (RTCA), impedance / Cell Index. The class given is cell-based. The following applies: HGE cells. The protocol: Cell Culture Human gingival epithelial (HGE) cell was maintained in a 37° C. incubator with 5% CO2 saturation. Dulbecco's modified Eagle's medium (DMEM, Gibco) containing 10% fetal calf serum, 1% penicillin-streptomycin was used as the complete culture medium, which was changed every 2-3 days. Barrier Protection Analysis by Real Time Cell Analyzer (RTCA) The real time cell analyzer (RTCA) xCELLigence RTCA DP (ACEA Bioscience Inc., San Diego, Calif.) equipment, based on impedance measurement, was used to monitor the barrier protection of polyols. 50 μl complete culture medium was added to E-plates to obtain background readings, followed by the addition of 100 μl of the cell suspension. The E-plates containing 28000 cell/well were incubated at 37° C., 5% CO2 for 22-24 h until cells were confluent. The culture medium was changed to DMEM or DMEM with 1% of polyols, non reducing sugars or combinations and incubated at 37° C., 5% CO2 for 2 h. The barrier disruptor (capsaicin to a final concentration of 75 μM in this case) was added to wells of E-plate. Impedance as reflected by the Cell Index (CI) was recorded continuously for 16-24 h. The CI curve was normalized at the time point just before adding polyols. The normalized CI at 3 h after adding of barrier disruptor was compared to blank control to generate the percentage of barrier function % comprimisation.

Data set [2] can be described thus: Solubility of tin ions (SnF2) in polyol solutions at various pH. The class given is physicochemical. The following applies: for Appearance of polyol solution with SnF2 (cloudy = formation of Sn(OH)2): pH 8-10, pH raised with NaOH; for Appearance of polyol solution with stannous fluoride: every point above pH of 4. The method, then:
Solubility of Tin Ions at a pH of Greater than 7
A 30% (w/w) solution was prepared for each polyol or combination of polyols was prepared using the appropriate amount of the pure polyol and deionized water. Next, 46 g of the 30% (w/w) polyol solution was placed in a 250 mL glass beaker with a stirring bar on top of a magnetic stirring apparatus. 21 g of deionized water was added to the glass beaker and the magnetic stirring apparatus was started to commence stirring of the solution. A pH electrode was connected to a pH meter (VWR Scientific, Model 9100, Radnor, Pa.) and the pH electrode (ThermoFisher Scientific, Orion 8165BNWP, Waltham, Mass.) was placed in the stirring polyol solution.
0.45 grams of a tin ion source, such as stannous fluoride, was added to the stirring polyol solution. The pH was recorded once the tin ion source was completely added. The pH of the solution was increased by dropwise addition of a 33% (w/w) solution of NaOH.
Solubility of Tin Ions at a pH of Less than 7
0.45 grams of a tin ion source, such as stannous fluoride, was added to the stirring polyol solution. The pH was recorded once the tin ion source was completely added. The pH of the solution was decreased by dropwise addition of a 33% (w/w) solution of HCl.
A solution that appeared cloudy indicated the formation of insoluble tin complexes. At a pH of greater than 7, a cloudy solution indicated the formation of Sn(OH)2. FIG. 1-6 illustrate TABLE 1 by showing the appearance of each solution described in TABLE 1.

Setting [3] is: DMEM with 1% polyol(s) for 2 h, then capsaicin 75 μM, normalized CI at 3 h after barrier disruptor compared to blank control (100%).
The mark [4] stands for this setting: pH 2-4, 30% (w/w) polyol solution diluted with water, 0.45 g stannous fluoride, pH lowered with HCl.

The record followed here is patent US11135143B2, “Oral care compositions comprising tin ions” (The Procter & Gamble Company, priority 2020, dated 2021).

`COc1cc(CNC(=O)CCCC/C=C/C(C)C)ccc1O` [Capsaicin, capsaicin, reference compound]: the “Barrier Function” value was 28% in data set [1] (barrier disruptor capsaicin 75 μM alone, no polyol, normalized CI at 3 h compared to blank control (100%)) and 28% in data set [1] (barrier disruptor capsaicin 75 μM alone, no polyol, normalized CI at 3 h compared to blank control (100%), listed as capsaicin).

Regarding `OCC(O)CO` [Glycerin, reference compound], the “Barrier Function” value in data set [1] (setting [3]) turned out to be 44%; in data set [1] (DMEM with 1% polyol(s) for 2 h, then capsaicin 75 μM, normalized CI at 3 h after barrier disruptor compared to blank control (100%), listed as glycerin) it was 44%.

On to `OC[C@@H](O)[C@@H](O)[C@H](O)[C@@H](O)CO` [Sorbitol], for which the “Appearance of polyol solution with SnF2 (cloudy = formation of insoluble tin complexes)” value in data set [2] (setting [4]) is recorded as “clear”; in data set [2] (pH 4-6) it was “cloudy”; in data set [2] (pH 6-8), “cloudy”. For the same compound, the “Appearance of polyol solution with SnF2 (cloudy = formation of Sn(OH)2)” value (“Appearance … (cloudy = formation of Sn(OH)2)” for short) in data set [2] is “clear”. Further, the “Barrier Function” value in data set [1] (setting [3]) stood at 46%; in data set [1] (DMEM with 1% polyol(s) for 2 h, then capsaicin 75 μM, normalized CI at 3 h after barrier disruptor compared to blank control (100%), listed as sorbitol) it was 46%.

On to `OC[C@H]1O[C@H](O[C@H]2O[C@H](CO)[C@@H](O)[C@H](O)[C@H]2O)[C@H](O)[C@@H](O)[C@@H]1O` [Trehalose], for which, in data set [2], the “Appearance of polyol solution with stannous fluoride” value is on record as “cloudy”. The “Appearance of polyol solution with SnF2 (cloudy = formation of insoluble tin complexes)” value is recorded as “clear” in data set [2] (setting [4]), “cloudy” in data set [2] (pH 4-6) and “cloudy” in data set [2] (pH 6-8). Besides, in data set [2], the “Appearance … (cloudy = formation of Sn(OH)2)” value is reported as “cloudy”. For the same compound, the “Barrier Function” value in data set [1] (setting [3]) was determined as 102%.

Turning to Isomalt, the “Appearance of polyol solution with stannous fluoride” value in data set [2] was “cloudy”. For the same compound, the figures for the “Appearance of polyol solution with SnF2 (cloudy = formation of insoluble tin complexes)” value in data set [2] (setting [4]), in data set [2] (pH 4-6) and in data set [2] (pH 6-8) were “clear”, “cloudy” and “cloudy”, respectively. Further, the “Appearance … (cloudy = formation of Sn(OH)2)” value in data set [2] is “cloudy”. The “Barrier Function” value in data set [1] (setting [3]) stood at 85%.
